ChEMBL document CHEMBL5120917, “Ferroptosis Inhibitory Aromatic Abietane Diterpenoids from Ajuga decumbens and Structural Revision of Two 3,4-Epoxy Group-Containing Abietanes” (J Nat Prod, 2022)
Blank lines part the entries; values can stand above or below the compound they belong to. The source made the active and inactive calls. The calls are words filed in the database; no cut-off is given here.

Assays:
[1] = Cytotoxicity against […] HT-22 cells assessed as reduction in cell viability measured after 24 hrs by MTT assay; assay type: toxicity, cell-based; conditions: mouse
[2] = Antioxidant activity assessed as DPPH radical scavenging activity at 100 uM measured for 30 mins by microplate spectrophotometric analysis; assay type: functional
HT-22 [3] = assay: Anti-ferroptotic activity against RSL3-induced ferroptosis in […] HT-22 cells assessed as cell viability measured after 24 hrs by MTT assay; assay type: functional, cell-based; conditions: Mus musculus, HT-22, 24 h
[4] = Metal chelating activity assessed as Fe2+-compound complex formation by UV-visible spectrophotometry
HT-22 [5] = assay: Reduction in lipid ROS accumulation in RSL-3 treated […] HT-22 cells assessed as fluorescence intensity incubated for 4 hrs by C11-BODIPY staining based flow cytometry analysis; assay type: functional, cell-based; conditions: Mus musculus, dose 25-100 nM
HT-22 [6] = assay: Reduction in cytosolic ROS accumulation in RSL-3 treated […] HT-22 cells assessed as fluorescence intensity incubated for 4 hrs by carboxy-H2DCFDA staining based flow cytometry analysis; assay type: functional, cell-based; conditions: Mus musculus, dose 25-100 nM
HT-22 [7] = assay: Reversal of RSL-3 induced PTGS2 mRNA expression in […] HT-22 cells incubated for 4 hrs by […] analysis; assay type: functional, cell-based; conditions: Mus musculus, dose 25-100 nM
HT-22 [8] = assay: Anti-ferroptotic activity against RSL3-induced ferroptosis in […] HT-22 cells assessed as cell viability at 1 uM measured after 24 hrs by MTT assay; assay type: functional; conditions: read-out: Activity

Structure (SMILES): CC1=C(C)C2=CC(=O)c3c(c(O)c4oc(C)cc4c3O)[C@@]2(C)CC1
CC50 at 24 h [1]: > 40 µM
Activity [2]: Active
EC50 (HT-22 [3]): 526 nM

Activity [4]: Active
Structure (SMILES): CC(=O)N(O)CCCCCNC(=O)CCC(=O)N(O)CCCCCNC(=O)CCC(=O)N(O)CCCCCN

Structure (SMILES): C[C@@H]1COc2c(O)c3c(c(O)c21)C(=O)C=C1[C@]3(C)CC[C@]2(C)O[C@]12C
CC50 at 24 h [1]: > 40 µM
Activity [2]: Active
EC50 (HT-22 [3]): 406 nM

Structure (SMILES): C=CCc1c(O)c2c(c(O)c1OC)[C@@]1(C)CCC(C)=C(C)C1=CC2=O
CC50 at 24 h [1]: > 40 µM
Activity [2]: Active
EC50 (HT-22 [3]): 308 nM

Structure (SMILES): CC1=C(C)C2=CC(=O)c3c(c(O)c4occ(C)c4c3O)[C@@]2(C)CC1
CC50 at 24 h [1]: > 40 µM
Activity [2]: Active
Activity (HT-22 [5]): Active
Activity (HT-22 [6]): Active
Activity (HT-22 [7]): Active
EC50 (HT-22 [3]): 56.1 nM

Structure (SMILES): Cc1coc2c(O)c3c(c(O)c12)C(=O)C=C1[C@]3(C)CC[C@]2(C)O[C@]12C
CC50 at 24 h [1]: > 40 µM
Activity [2]: Active
EC50 (HT-22 [3]): 348 nM

Structure (SMILES): C[C@@H]1COc2c(O)c3c(c(O)c21)C(=O)CC1C(C)(C)CCC[C@]31C (some centres not stated)
CC50 at 24 h [1]: > 40 µM
viability at 1 µM (HT-22 [8]): < 50%

Structure (SMILES): CC1=C(C)C2=CC(=O)[C@@]34O[C@@]3(C(=O)c3occ(C)c3C4=O)[C@@]2(C)CC1
CC50 at 24 h [1]: > 40 µM
viability at 1 µM (HT-22 [8]): < 50%

Structure (SMILES): CCOC(=O)c1ccc(NC2CCCCC2)c(N)c1
EC50 (HT-22 [3]): 81.2 nM

Structure (SMILES): CC1=C(C)C2=CC(=O)c3c(O)c4c(c(O)c3[C@@]2(C)CC1=O)OC[C@H]4C
CC50 at 24 h [1]: > 40 µM
viability at 1 µM (HT-22 [8]): < 50%
Activity [2]: Active

Structure (SMILES): CC1=C(C)C2=CC(=O)[C@@]34O[C@@]3(C(=O)c3oc(C)cc3C4=O)[C@@]2(C)CC1
CC50 at 24 h [1]: > 40 µM
viability at 1 µM (HT-22 [8]): < 50%

Structure (SMILES): CC1=C(C)C2=CC(=O)c3c(O)c4c(c(O)c3[C@@]2(C)CC1)OC[C@H]4C
CC50 at 24 h [1]: > 40 µM
Activity [2]: Active
EC50 (HT-22 [3]): 76.2 nM
